Source: US20140005271A1, “PHARMACEUTICAL COMPOSITION FOR PREVENTING OR TREATING INFLAMMATORY DISEASES OR INFECTIOUS DISEASES, CONTAINING m-3M3FBS, WHICH IS ACTIVATOR OF PHOSPHOLIPASE C, AS ACTIVE INGREDIENT” (priority 2011, published 2014)

Assays:
CLP mouse models = experiment: Survival/mortality of CLP (cecal ligation and puncture) sepsis mice; type: in vivo; details: for effect on the m-3M3FBS-induced survival rate: treated within the period of injecting m-3M3FBS, 1.5 mg/kg, FIG. 1C
Experimental: (§1) Male WT ICR mice were used as test models. All tests involving animals were performed according to the guidelines, and received the approval of Institutional Review Committee for Animal Care and Use from Dong-a University. For cecal ligation and puncture (CLP), the mice were anesthetized by intraperitoneal injection of pentothal sodium (50 mg/kg), and the cecum was exposed through midline incision of the abdomen. The cecum was ligated at a terminal end of the ileocecal valve, and the surface was perforated twice, or once to measure cytokine production using a 22-gauge needle, and the abdomen was closed. The control (sham) CLP mice underwent the same process as described above, but the cecum was not ligated or punctured.

[1] = tested on: mouse neutrophils with opsonized E. coli; experiment: Microbicidal action of neutrophils on ingested opsonized E. coli; type: cell-based
Experimental: Neutrophils were incubated for 1 hour at a 13-mm plastic cover slip on a 60-mm plastic petri dish (1×10^6 neutrophils/cover slip) at 37° C. Unattached neutrophils were removed by PBS washing, and the attached neutrophils were incubated with 10^6 of opsonized E. coli for 20 minutes. Microbes ingested by neutrophils were incubated for 30 minutes at various concentrations of m-3M3FBS or vehicles, and changes of the microbes before and after incubation were examined. A percentage of dead microbes was calculated by 100×(1−the number of CFU after m-3M3FBS stimulation/the number of CFU before m-3M3FBS stimulation).

mouse neutrophils [2] = experiment: Production of H2O2 in neutrophils; type: cell-based
Experimental: Neutrophils of mice were isolated from peripheral blood using Histopaque-1077 solvent (Sigma), and neutrophils isolated from a normal mouse were stimulated by treating various concentrations of m-3M3FBS for 10 minutes in the presence of cytochalasin B (5 μm). […] H2O2 obtained from a supernatant was analyzed using H2O2 Molecular Probes.

[3] = tested on: bacteria in the peritoneal fluid; experiment: In vivo microbicidal action: bacterial colonies (CFU) in peritoneal lavage fluid after CLP; design: species or system mouse; details: 1.5 mg/kg; 24 hours after CLP; FIG. 3A
Experimental: 24 hours after the CLP, peritoneal lavage fluid was harvested, and was incubated overnight in a blood-agar base plate (Trypticase Soy Agar Deeps, Becton Dickinson) at 37° C. CFUs were estimated by counting bacteria colonies formed in the blood-agar base plate (Trypticase Soy Agar Deeps, Becton Dickinson).

caspase-3 = experiment: Immunostaining of fragmented caspase-3 in splenocytes of CLP mice; design: species or system mouse; details: 1.5 mg/kg in vivo; FIG. 4D
Experimental: Immunostaining was performed on the paraffin-embedded tissue fragments. The fragments were incubated with primary antibodies (Cell Signal transduction) in response to fragmented capase-3, and stained with fluorescent pigment-fused secondary antibodies.

[4] = tested on: thymocytes and splenocytes; experiment: CLP-induced apoptosis of thymocytes and splenocytes (H&E staining, counting of living cells); type: in vivo, mouse; details: 1.5 mg/kg; 24 hours; FIGS. 4A and B
Experimental: as §1

lung of the CLP mouse = experiment: Inflammation of the lung in CLP mice (hematoxylin and eosin staining, W/D weight ratio); type: in vivo; details: 1.5 mg/kg
Experimental: The degree of pulmonary edema was identified by measuring a wet-to-dry (W/D) ratio of the lung. The wet weight of the harvested cells was measured, and the cells were placed in an oven at 60° C. for 48 hours, and the dry weight of the cells was measured, thereby obtaining the W/D ratio.
2 hours after the mice underwent CLP, PBS or m-3M3FBS was administered at a concentration of 1.5 mg/kg. 24 hours after the surgery, the mice were euthanized, and the lung was fixed, cut, and stained with hematoxylin and eosin to perform morphological analysis.

splenocytes of mice = experiment: Direct in vitro production of IFN-γ and IL-12 by ELISA; type: cell-based, mouse; details: various concentrations, 3 hours
mouse neutrophils [5] = experiment: LPS-induced proinflammatory cytokine secretion in neutrophils by ELISA; type: cell-based; details: LPS 100 ng/ml, m-3M3FBS 10 μM, versus LPS alone
Experimental: Mouse neutrophils (3×10^6 cells/0.3 ml) were incubated in a 24-well plate containing 10% FBS-contained RPMI 1640 medium, and placed in 5% CO2 incubator at 37° C. Then, the neutrophils were incubated with LPS (100 ng/ml) for 6 hours in the presence or absence of m-3M3FBS (10 μM). The LPS (100 ng/ml) was treated to the cells after 30 minutes, the cell-free supernatant was harvested by centrifugation, and the production of IL-1 or TNF-α was detected by ELISA (BD Biosciences Pharmingen) according to the manufacturer's instructions.

splenocytes = experiment: TUNEL assay of CLP-induced apoptosis; type: in vivo, mouse; details: 1.5 mg/kg; FIG. 4C
Experimental: The TUNEL assay was performed on tissue fragments embedded in paraffin, and the fragments were subjected to permeation of Triton X-100 at 4° C. for 2 minutes, and immersed in a TdT enzyme and a digoxigenin-dUTP reaction buffer (TUNEL) reagent for 60 minutes at 37° C. A percentage of apoptotic cells (TUNEL-positive cells) was determined by counting 500 splenocytes, which were observed using an optical microscope.

[6] = tested on: cytokines in the peritoneal fluid; experiment: CLP-induced cytokines in peritoneal fluid by ELISA; type: in vivo, mouse; details: 1.5 mg/kg, 4 to 72 hours after CLP
Experimental: To detect production of CLP-inducing cytokines in peritoneal lavage fluid, m-3M3FBS was treated 2, 14, 26, or 38 hours after CLP. The peritoneal lavage fluid was harvested at various points of time from 4 to 72 hours after the CLP, and expression of cytokines in the peritoneal fluid was detected by ELISA (BD Biosciences Pharmingen).

## COc1ccc2c(c1)CC[C@@H]1[C@@H]2CC[C@]2(C)[C@@H](NCCCCCCN3C(=O)C=CC3=O)CC[C@@H]12 [U-73122, reference compound]
CLP mouse models
  effect on the m-3M3FBS-induced survival rate: completely prevented the increase in the m-3M3FBS-induced survival rate
[1]; neutrophils preincubated with the inhibitor (10 μM), then m-3M3FBS added, FIG. 3C
  effect on m-3M3FBS-induced microbicidal action: completely prevented
Mouse neutrophils [2]; neutrophils preincubated with the inhibitor (10 μm), FIG. 3E
  effect on m-3M3FBS-induced production of H2O2: significantly decreased

## COc1ccc2c(c1)CC[C@@H]1[C@@H]2CC[C@]2(C)[C@@H](NCCCCCCN3C(=O)CCC3=O)CC[C@@H]12 [U-73343, reference compound]
CLP mouse models
  effect on the m-3M3FBS-induced survival rate: did not

## Cc1cc(C)c(S(=O)(=O)Nc2cccc(C(F)(F)F)c2)c(C)c1 [m-3M3FBS]
CLP mouse models; 1.5 mg/kg 2 hours after CLP, further three or four times at 12 hour intervals, FIG. 1B
  survival rate by injection frequency: significantly improved
CLP mouse models; 0.9 or 1.5 mg/kg injected, FIG. 1A
  survival rate of the mice compared to vehicle-injected control: significantly increased
CLP mouse models; various concentrations injected after CLP, FIG. 1A
  mortality of the mice after CLP: significant decrease in the mortality
[3]
  decrease in number of colonies of bacteria in the abdominal cavity: 55%
caspase-3
  activation of CLP-induced caspase-3: significantly inhibited
[4]
  CLP-induced apoptosis of the thymocytes and splenocytes: significantly inhibited
Lung of the CLP mouse; 24 hours after CLP, FIG. 2B
  W/D weight ratio of the lung: significantly decreased
Lung of the CLP mouse; hematoxylin and eosin staining 24 hours after surgery, FIG. 2A
  lung inflammation symptoms (congestion, extensive thrombotic lesions): significantly decreased
Splenocytes of mice; FIG. 6D
  production of IFN-γ: increased
Splenocytes of mice; FIG. 6E
  production of IL-12: increased
Mouse neutrophils [5]; FIG. 6A
  level of IL-1β after LPS treatment: decreased
Mouse neutrophils [5]; FIG. 6B
  level of TNF-α after LPS treatment: decreased
Mouse neutrophils [5]; FIG. 6C
  level of IL-6 after LPS treatment: decreased
splenocytes
  CLP-induced apoptosis by DNA fragmentation assay (TUNEL): significantly inhibited
[1]; 1 to 50 μm m-3M3FBS, FIG. 3B
  microbicidal action of the neutrophils: significantly increased in a direction proportional to the concentration
Mouse neutrophils [2]; 1 to 50 μm m-3M3FBS, FIG. 3D
  production of H2O2 in the neutrophils: increased the production of H2O2 in the neutrophils in a direction proportional to the concentration
[6]; FIG. 5A
  level of IL-1β in peritoneal fluid: significantly decreased
[6]; FIG. 5B
  level of TNF-α in peritoneal fluid: significantly decreased
[6]; FIG. 5C
  level of IL-12p70 in peritoneal fluid: significantly increased
[6]; FIG. 5D
  level of IFN-γ in peritoneal fluid: significantly increased
